Results reported in ChEMBL document CHEMBL1201862, “PubChem BioAssay data set” (2004).
Calls of active or inactive are those of the source.

Legend:
Vero [1] = assay: cells; format: functional, cell-based; details: Chlorocebus sabaeus
[2] = biological target: T1, Replicative DNA helicase DnaB (Mycobacterium tuberculosis, UniProt P9WMR3); assay: DnaB intein splicing inhibitors, dose response, biochemical, cell-free fluorescence (AID 449749); format: functional
T1 sequence (P9WMR3 whole entry): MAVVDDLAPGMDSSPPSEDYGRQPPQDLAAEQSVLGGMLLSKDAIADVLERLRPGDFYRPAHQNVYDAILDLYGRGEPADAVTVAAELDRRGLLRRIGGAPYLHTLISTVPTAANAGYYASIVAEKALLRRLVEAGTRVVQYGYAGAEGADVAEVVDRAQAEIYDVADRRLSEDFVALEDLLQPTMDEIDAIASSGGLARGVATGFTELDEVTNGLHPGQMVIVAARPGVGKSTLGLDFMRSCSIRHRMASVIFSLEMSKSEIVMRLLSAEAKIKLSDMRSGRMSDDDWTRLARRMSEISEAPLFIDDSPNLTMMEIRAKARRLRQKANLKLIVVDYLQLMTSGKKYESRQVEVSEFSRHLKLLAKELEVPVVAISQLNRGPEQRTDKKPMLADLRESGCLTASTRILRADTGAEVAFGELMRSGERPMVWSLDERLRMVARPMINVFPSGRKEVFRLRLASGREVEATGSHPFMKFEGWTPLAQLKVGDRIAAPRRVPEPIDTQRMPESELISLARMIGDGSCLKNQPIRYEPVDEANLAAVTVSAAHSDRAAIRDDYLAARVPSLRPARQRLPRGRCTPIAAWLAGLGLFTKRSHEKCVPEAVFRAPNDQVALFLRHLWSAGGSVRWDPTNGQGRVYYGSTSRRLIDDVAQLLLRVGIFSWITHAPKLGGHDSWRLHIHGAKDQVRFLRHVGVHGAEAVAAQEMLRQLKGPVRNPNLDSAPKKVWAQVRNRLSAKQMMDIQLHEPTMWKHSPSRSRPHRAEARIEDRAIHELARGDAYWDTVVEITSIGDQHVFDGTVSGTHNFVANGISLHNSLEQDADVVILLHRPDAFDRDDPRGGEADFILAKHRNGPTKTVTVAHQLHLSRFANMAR

[3] = Luminescence Cell-Based Dose Retest to Confirm Inhibitors of Cancer Stem Cells. [Related pubchem assays (depositor defined):AID2717, AID2721]; format: functional; details: Homo sapiens
Vero [4] = assay: cells; format: functional; details: Chlorocebus sabaeus
Protein RecA = biological target: T2, Protein RecA (Mycobacterium tuberculosis, UniProt P9WHJ3); assay: Fluorescence Cell-Free Homogeneous Dose Retest to Identify Inhibitors of RecA-Intein Splicing Activity. [Related pubchem assays (depositor defined):AID2097, AID2223, AID489010, AID492950]; format: functional
T2 sequence (P9WHJ3 whole entry): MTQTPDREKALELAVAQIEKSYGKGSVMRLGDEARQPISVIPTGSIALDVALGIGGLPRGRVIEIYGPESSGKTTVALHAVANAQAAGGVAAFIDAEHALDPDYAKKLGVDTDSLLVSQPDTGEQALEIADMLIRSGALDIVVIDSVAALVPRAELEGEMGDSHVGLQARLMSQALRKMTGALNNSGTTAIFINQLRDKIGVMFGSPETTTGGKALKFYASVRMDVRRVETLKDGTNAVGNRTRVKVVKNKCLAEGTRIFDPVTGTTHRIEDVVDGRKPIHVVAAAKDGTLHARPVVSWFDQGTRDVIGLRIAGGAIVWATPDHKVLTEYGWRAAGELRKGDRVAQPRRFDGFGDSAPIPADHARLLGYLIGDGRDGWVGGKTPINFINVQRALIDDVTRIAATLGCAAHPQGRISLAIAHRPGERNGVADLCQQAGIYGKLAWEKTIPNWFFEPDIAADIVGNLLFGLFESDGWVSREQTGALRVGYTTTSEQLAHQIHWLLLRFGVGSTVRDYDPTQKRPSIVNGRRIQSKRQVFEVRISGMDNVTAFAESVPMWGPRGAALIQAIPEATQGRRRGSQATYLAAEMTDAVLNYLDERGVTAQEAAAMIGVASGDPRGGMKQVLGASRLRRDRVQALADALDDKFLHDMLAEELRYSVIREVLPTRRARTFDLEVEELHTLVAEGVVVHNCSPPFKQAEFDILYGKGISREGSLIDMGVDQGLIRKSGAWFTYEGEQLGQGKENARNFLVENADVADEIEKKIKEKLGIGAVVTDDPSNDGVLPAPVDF

[5] = biological target: T3, Mitochondrial peptide methionine sulfoxide reductase (Bos taurus, UniProt P54149); assay: Absorbance-based biochemical high throughput dose response assay for activators of Methionine sulfoxide reductase A (MsrA).; format: functional
T3 sequence (P54149 whole entry): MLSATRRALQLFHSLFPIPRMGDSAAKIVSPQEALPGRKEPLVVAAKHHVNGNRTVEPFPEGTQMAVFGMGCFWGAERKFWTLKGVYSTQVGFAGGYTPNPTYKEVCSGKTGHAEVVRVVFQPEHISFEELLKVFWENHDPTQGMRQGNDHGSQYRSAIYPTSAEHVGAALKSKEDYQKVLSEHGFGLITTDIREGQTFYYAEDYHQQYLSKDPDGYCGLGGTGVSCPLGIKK

[6] = biological target: T4, DNA repair and recombination protein RAD54-like (Homo sapiens, UniProt Q92698); assay: inhibitors of human RAD54 branch migration, confirmation, biochemical, fluorescence, cherry-picked samples, dose series (AID 651657); format: functional
T4 sequence (Q92698 whole entry): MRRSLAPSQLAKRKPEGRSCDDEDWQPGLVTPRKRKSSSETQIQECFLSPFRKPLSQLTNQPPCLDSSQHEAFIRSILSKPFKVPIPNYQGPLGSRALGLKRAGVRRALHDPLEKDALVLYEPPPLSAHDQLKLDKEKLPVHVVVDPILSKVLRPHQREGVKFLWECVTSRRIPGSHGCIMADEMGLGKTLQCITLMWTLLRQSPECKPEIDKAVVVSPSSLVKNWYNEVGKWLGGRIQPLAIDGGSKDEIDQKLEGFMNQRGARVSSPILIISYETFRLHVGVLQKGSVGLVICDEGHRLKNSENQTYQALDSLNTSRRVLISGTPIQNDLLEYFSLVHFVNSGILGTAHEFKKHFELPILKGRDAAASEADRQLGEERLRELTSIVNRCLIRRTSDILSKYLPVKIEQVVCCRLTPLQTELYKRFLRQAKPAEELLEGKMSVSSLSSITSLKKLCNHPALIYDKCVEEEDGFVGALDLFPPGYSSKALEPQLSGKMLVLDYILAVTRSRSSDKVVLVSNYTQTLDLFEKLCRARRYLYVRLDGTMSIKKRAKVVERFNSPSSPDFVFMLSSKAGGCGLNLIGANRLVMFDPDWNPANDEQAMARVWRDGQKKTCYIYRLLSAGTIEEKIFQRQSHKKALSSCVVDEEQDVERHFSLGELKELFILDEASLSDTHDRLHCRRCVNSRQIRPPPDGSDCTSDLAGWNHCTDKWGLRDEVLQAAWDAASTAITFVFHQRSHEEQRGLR

BJ [7] = assay: cytotoxicity toward BJ-TERT-LT-ST fibroblasts, dose response, cell-based, RAS-independent, luminescence (AID 1935); format: functional; details: Homo sapiens;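 further: BJ fibroblasts immortalized with TERT plus LT and ST oncogenes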
[8] = NIH-3T3 fibroblast cytotoxicity, dose response, cytotoxicity control, cell-based, fluorescence, Alamar Blue, secondary assay (AID 2327); format: functional;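 further: NIH-3T3 mouse fibroblasts cultured with fluconazole at 8 µg/mL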
[9] = biological target: T5, Microphthalmia-associated transcription factor (Homo sapiens, UniProt O75030); assay: TRPM1 promoter luciferase signal decrease, dose response, MITF inhibitor project, cell-based, SK-MEL-5, cherry-picked, set 3 (AID 493073); format: functional
T5 sequence (O75030 whole entry): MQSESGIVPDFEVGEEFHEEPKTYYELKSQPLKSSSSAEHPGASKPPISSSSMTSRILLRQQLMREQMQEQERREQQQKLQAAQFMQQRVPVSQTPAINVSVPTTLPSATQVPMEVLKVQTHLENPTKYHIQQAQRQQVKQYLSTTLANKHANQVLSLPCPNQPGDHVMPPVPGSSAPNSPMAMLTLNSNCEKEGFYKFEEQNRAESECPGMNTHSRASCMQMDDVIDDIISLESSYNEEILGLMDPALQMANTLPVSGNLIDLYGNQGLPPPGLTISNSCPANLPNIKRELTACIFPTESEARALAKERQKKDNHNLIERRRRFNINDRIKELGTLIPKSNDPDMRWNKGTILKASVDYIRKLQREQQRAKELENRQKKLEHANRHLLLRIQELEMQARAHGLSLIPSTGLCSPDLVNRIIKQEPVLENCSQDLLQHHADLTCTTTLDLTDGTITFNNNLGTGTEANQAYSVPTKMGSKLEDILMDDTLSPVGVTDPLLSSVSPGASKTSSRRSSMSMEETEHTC

[10] = Shn3 3'UTR reporter inhibitors, dose response, cell-based, Clone20 osteoblasts, firefly luciferase, cherry-picked (AID 624132); format: functional;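 further: firefly luciferase luminescence from reporter carrying the Shn3 3'UTR in osteoblasts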
[11] = cytotoxicity in HEK-293T cells, dose response, cytotoxicity control for TCR NF-kB inhibitor project, luminescence, T-cell screen hits (AID 489026); format: functional, cell-based;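 further: cells exposed to compound about 14 hours before the viability readout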
BJ [12] = assay: cytotoxicity toward Ras-transformed BJeLR fibroblasts, dose response, cell-based, alamar blue fluorescence, cherrypicked samples (AID 2631); format: functional; details: Homo sapiens;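 further: confirmatory dose-response assay in RAS-dependent BJ fibroblasts engineered with TERT, LT and ST, with cytotoxicity read by fluorescence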
[13] = A549 cell cytotoxicity, dose response, cytotoxicity control, plate reader, cherry-pick, antagonist series (AID 743412); format: functional, cell-based
[14] = HEK293 cell cytotoxicity, dose response, cytotoxicity control, plate reader, cherry-picked samples (AID 743446); format: functional, cell-based
[15] = C. albicans growth with fluconazole, confirmation, fluorescence, retest (AID 2467); format: functional, cell-based
BJ [16] = assay: cytotoxicity toward BJ-TERT fibroblasts, dose response, cell-based, RAS-independent, luminescence (AID 1933); format: functional; details: Homo sapiens
[17] = HepG2 cell cytotoxicity, dose response, cytotoxicity control for Shn3 inhibitor project, CellTiter-Glo, cherry-picked (AID 624134); format: functional, cell-based
BJ [18] = assay: cells; format: functional, cell-based; details: Homo sapiens
[19] = cytotoxicity toward DRD oncogenic fibroblasts, dose response, cell-based, non-viral oncogenic, luminescence (AID 1934); format: functional; details: Homo sapiens
[20] = HepG2 cell cytotoxicity, dose response, cytotoxicity control, plate reader, cherry-pick, antagonist series (AID 743416); format: functional, cell-based
[21] = control 3'UTR Renilla luciferase suppression, dose response, counter-screen for Shn3 inhibitor project, cell-based, Clone20-Shn3RL, cherry-picked (AID 624133); format: functional

**Q.** Which IC50 (Vero [1]) does the source give for `C=CCSC(=C(C#N)C#N)c1cc2c([nH]1)CCCC2` here?
**A.** Its IC50 is > 25 µM (active).

**Q.** And the AC50 [2]?
**A.** Its AC50 is > 380 µM (inactive).

**Q.** And the AC50 [3]?
**A.** The AC50 was 6.73 µM (active).

**Q.** What about the CC50 (Vero [4]) of the same compound?
**A.** The CC50 was 10.5 µM (active).

**Q.** And the EC50 (Protein RecA)?
**A.** The EC50 was 6.29 µM (active).

**Q.** For `Cc1cc(S)nc(S)n1`, which EC50 [5] is on record?
**A.** The EC50 was > 104 µM (inactive).

**Q.** With `CCOC(=O)c1c(C)n(C)c2ccc(OCC(O)CN3CCC(C)CC3)cc12` (configuration not stated) as the compound, how does the AC50 [6] read?
**A.** The AC50 was 56.3 µM (active).

**Q.** With `O=c1c2ccccc2nc(/C=C/c2ccc([N+](=O)[O-])o2)n1-c1ccc(O)cc1` as the compound, how does the EC50 (BJ [7]) read?
**A.** The EC50 was 3.08 µM (inconclusive).

**Q.** What about the EC50 [8] of the same compound?
**A.** Its EC50 is 3.91 µM (inconclusive).

**Q.** What about the AC50 [9] of the same compound?
**A.** The AC50 was 4.45 µM (active).

**Q.** What about the AC50 [10] of the same compound?
**A.** Its AC50 is 3.24 µM (active).

**Q.** And the IC50 [11]?
**A.** The IC50 was > 80 µM (inactive).

**Q.** What about the EC50 (BJ [12]) of the same compound?
**A.** Its EC50 is 7.06 µM (active).

**Q.** And the AC50 [13]?
**A.** Its AC50 is 4.35 µM (active).

**Q.** And the AC50 [14]?
**A.** The AC50 was 4.16 µM (active).

**Q.** What about the EC50 [15] of the same compound?
**A.** Its EC50 is 0.165 µM (active).

**Q.** And the EC50 (BJ [16])?
**A.** Its EC50 is 4.33 µM (active).

**Q.** And the AC50 [17]?
**A.** Its AC50 is 5.99 µM (active).

**Q.** And the EC50 (BJ [18])?
**A.** Its EC50 is 3.48 µM (inconclusive).

**Q.** And the EC50 [19]?
**A.** Its EC50 is 2.97 µM (active).

**Q.** And the AC50 [20]?
**A.** Its AC50 is 4.17 µM (active).

**Q.** What about the AC50 [21] of the same compound?
**A.** Its AC50 is 4.9 µM (active).

**Q.** Which EC50 (BJ [7]) does the source give for `NS(=O)(=O)c1ccc(NC(=O)c2cc(-c3cccs3)nc3ccccc23)cc1` here?
**A.** The EC50 was > 75 µM (inconclusive).

**Q.** What about the EC50 (BJ [12]) of the same compound?
**A.** Its EC50 is > 133 µM (inactive).

**Q.** And the EC50 (BJ [16])?
**A.** The EC50 was 14.1 µM (active).

**Q.** And the EC50 (BJ [18])?
**A.** The EC50 was 83.1 µM (active).

**Q.** What about the EC50 [19] of the same compound?
**A.** The EC50 was 10.8 µM (active).
